In EPA's ToxValDB 9.5 (doi:10.2903/j.efsa.2016.4518):

What was measured:
Anas platyrhynchos = settings: reproductive; duration: 20 weeks
Apis mellifera = settings: acute, mortality
Bibionidae = settings: chronic/long-term; duration: 28 days
Canidae = settings: oral, Dog Other, hematological
Colinus virginianus = settings: acute, oral, mortality
Hypoaspis aculeifer = settings: chronic/long-term; duration: 21 days; mortality
Pimephales promelas = settings: chronic/long-term; duration: 264 days; other
Tagia sp. = settings: chronic/long-term; duration: 56 days; mortality
Poecilus cupreus = experiment: LR50; higher = less toxic; settings: not reported; duration: 19 days; mortality
Typhlodromus pyri = experiment: LR50; higher = less toxic; settings: not reported; duration: 7 days; mortality

Structure (SMILES): CON(C)C(=O)Nc1ccc(Cl)c(Cl)c1 [Linuron]
- NOAEL (Anas platyrhynchos): 13.9 mg/kg-day
- LD50 (Apis mellifera; dermal): > 97.8 µg/piece
- LD50 (Apis mellifera; oral, unspecified): > 112 µg/piece
- NOEC (Bibionidae): 9.5 mg/kg
- NOAEL (Canidae; chronic, duration: 1 years): 0.9 mg/kg-day
- NOAEL (Canidae; subchronic, duration: 90 days): 0.9 mg/kg-day
- LD50 (Colinus virginianus; diet): 121 mg/kg-day
- LD50 (Colinus virginianus): 314 mg/kg-day
- NOEC (Hypoaspis aculeifer): 3.39 mg/kg
- NOEC (Pimephales promelas): 97 µg/L
- LD50 (Rattus norvegicus; acute, oral, mortality): 1000 mg/kg
- LOAEL (Rattus norvegicus; chronic, duration: 2 years, other): 1.3 mg/kg-day
- NOAEL (Rattus norvegicus; reproduction developmental, body weight): 0.8 mg/kg-day
- NOEC (Tagia sp.): 6.78 mg/kg
- LR50 (Poecilus cupreus): > 927 g/ha
- LR50 (Typhlodromus pyri): 42.7 g/ha
